Laboratory results taken from patent US20160000912A1, “COMBINATION THERAPY OF A TYPE II ANTI-CD20 ANTIBODY WITH A PROTEASOME INHIBITOR” (Roche Glycart AG, priority 2007, published 2016).

Tests used:
[1] = test system: SU-DHL-4 human Non-Hodgkin-Lymphoma (NHL) cells; experiment: Tumor growth inhibition study in vivo, SU-DHL-4 xenografts; design: species or system SCID beige mice; details: 1 mg/kg i.p. once weekly
Experimental: Type II anti-CD20 antibody B-HH6-B-KV1 GE(=humanized B-Ly1, glycoengineered B-HH6-B-KV1, see WO 2005/044859 and WO 2007/031875) was provided as stock solution (c=9.4 mg/ml) from GlycArt, Schlieren, Switzerland. Antibody buffer included histidine, trehalose and polysorbate 20. Antibody solution was diluted appropriately in PBS from stock for prior injections.
Proteasome inhibitor bortezomib was purchased as clinical formulation from Janssen-Cilag GmbH, Neuss, Germany. Dilution was adjusted from reconstituted stock solution.
SU-DHL-4 human Non-Hodgkin-Lymphoma (NHL) cells (Chang, H., et al., Leuk Lymphoma. 8 (1992) 129-36) were kindly provided from DSMZ, Braunschweig. Tumor cell line was routinely cultured in RPMI medium (PAA, Laboratories, Austria) supplemented with 10% fetal bovine serum (PAA Laboratories, Austria) and 2 mM L-glutamine, at 37° C. in a water-saturated atmosphere at 5% CO2. Passage 5 was used for transplantation. […]
Animals were controlled daily for clinical symptoms and detection of adverse effects. For monitoring throughout the experiment body weight of animals was documented two times weekly and tumor volume was measured by caliper after staging. […]

[2] = target: T1, CD20 on Raji cells (ATCC-No. CCL-86) (Homo sapiens, UniProt P11836); experiment: Ratio of the binding capacities to CD20 on Raji cells compared to rituximab (direct immunofluorescence, Cy5, FACSArray); details: Cy5-conjugated antibodies
T1 construct: generated by direct immunofluorescence using the Burkitt's lymphoma cell line Raji (ATCC-No. CCL-86); host or cells: Raji cells (Burkitt's lymphoma)
T1 sequence (P11836 1-297): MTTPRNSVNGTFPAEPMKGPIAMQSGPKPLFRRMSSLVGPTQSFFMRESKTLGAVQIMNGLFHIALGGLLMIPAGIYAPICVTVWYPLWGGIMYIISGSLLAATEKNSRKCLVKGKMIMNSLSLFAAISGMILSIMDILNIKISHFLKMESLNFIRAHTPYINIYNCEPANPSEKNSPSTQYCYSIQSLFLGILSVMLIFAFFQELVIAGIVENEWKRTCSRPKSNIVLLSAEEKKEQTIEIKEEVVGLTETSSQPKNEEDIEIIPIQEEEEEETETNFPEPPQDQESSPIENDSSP
Experimental: MFI is the mean fluorescent intensity. The “Cy5-labeling ratio” as used herein means the number of Cy5-label molecules per molecule antibody.
Raji cells (ATCC-No. CCL-86) were maintained in culture in RPMI-1640 medium (PanBiotech GmbH, Cat.-No. PO4-18500) containing 10% FCS (Gibco, Cat.-No.10500-064). […] 5*10^5 cells per sample were stained for 30 min at 4° C. Afterwards, cells were washed in culture medium. Propidium iodide (PI) staining was used to exclude dead cells.
Then the ratio of the binding capacities to CD20 on Raji cells (ATCC-No. CCL-86) is calculated according to the following formula: […]

Molecule | antitumor activity as single agent (in words) [1] | binding capacity compared to rituximab (in words) [2]
CC(C)C[C@H](NC(=O)[C@H](Cc1ccccc1)NC(=O)c1cnccn1)B(O)O [bortezomib] | only slightly active | 
B-HH6-B-KV1: Type II anti-CD20 antibody (humanized B-Ly1 antibody) of Example 2; FIG. 2 legend calls it B-HH6-B-KV1 GE |  | reduces binding capacity compared to rituximab
